Some results are limits rather than exact numbers.

A short description of experiment [1]: Inhibition of recombinant bacterial sortase A using Dabcyl-QALPETGEE-Edans as substrate measured after 1 hr by fluorescence assay. Details: species or system Bacteria.
The test system of experiment [2] is MDA-MB-231. Description: Cytotoxicity against human MDA-MB-231 cells after 72 hrs by sulforhodamine B assay. In kind it is functional, cell-based. The settings on record: mda-mb-231.
Experiment [3] has as its system SNU-638. The experiment in a line: Cytotoxicity against human SNU638 cells after 72 hrs by sulforhodamine B assay. In kind it is functional, cell-based. The settings on record: snu-638.
Experiment [4] relates to Escherichia coli. Description: Antibacterial activity against Escherichia coli ATCC 25922 measured after 24 hrs. In kind it is functional. The settings on record: ATCC 25922, 24 h.
In experiment [5] the test system is Aspergillus fumigatus. The experiment in a line: Antifungal activity against Aspergillus fumigatus HIC 6094 measured after 48 to 72 hrs. It counts as functional.
For experiment [6], the system named is Micrococcus luteus. Description: Antibacterial activity against Micrococcus luteus IFC 12708 measured after 24 hrs. In kind it is functional. The settings on record: IFC 12708, 24 h.
Experiment [7] deals with Candida albicans. The experiment in a line: Antifungal activity against Candida albicans ATCC 10231 measured after 48 to 72 hrs. In kind it is functional.
The subject of experiment [8] is SK-HEP1. Description: Cytotoxicity against human SKHEP1 cells after 72 hrs by sulforhodamine B assay. It counts as functional, cell-based. To be noted: sk-hep1.
Experiment [9] relates to A549.
Description: Cytotoxicity against human A549 cells after 72 hrs by sulforhodamine B assay
For experiment [10], the system named is Trichophyton rubrum. The experiment in a line: Antifungal activity against Trichophyton rubrum IFO 9185 measured after 48 to 72 hrs. It counts as functional.
The subject of experiment [11] is Salmonella typhimurium. The experiment in a line: Antibacterial activity against Salmonella typhimurium ATCC 14028 measured after 24 hrs. In kind it is functional, Salmonella enterica subsp. enterica serovar Typhimurium. To be noted: Salmonella enterica, ATCC 14028, 24 h.
Experiment [12] deals with Bacillus spizizenii. The experiment in a line: Antibacterial activity against Bacillus subtilis ATCC 6633 measured after 24 hrs. It counts as functional. The settings on record: ATCC 6633, 24 h.
Experiment [13] relates to Trichophyton mentagrophytes. The experiment in a line: Antifungal activity against Trichophyton mentagrophytes IFO 40996 measured after 48 to 72 hrs. In kind it is functional.
Experiment [14] relates to Proteus vulgaris. The experiment in a line: Antibacterial activity against Proteus vulgaris ATCC 3851 measured after 24 hrs. To be noted: ATCC 3851, 24 h. In kind it is functional.
For experiment [15], the target named is Sodium/potassium-transporting ATPase. The experiment in a line: Inhibition of potassium-activated sodium/potassium ATPase in human placenta using 3-O-methylfluorescein phosphate as substrate measured for 90 secs by fluorescence assay.
The subject of experiment [16] is HCT-116. The experiment in a line: Cytotoxicity against human HCT116 cells after 72 hrs by sulforhodamine B assay. In kind it is functional, cell-based. The settings on record: hct-116.
The test system of experiment [17] is K562. Description: Cytotoxicity against human K562 cells after 72 hrs by sulforhodamine B assay. To be noted: k562. It counts as functional, cell-based.
Experiment [18] has as its system Staphylococcus aureus. Description: Antibacterial activity against Staphylococcus aureus ATCC 6538P measured after 24 hrs. In kind it is functional.

As to `CC[C@H](C)[C@@H]1NC(=O)[C@H](Cc2ccc(O)cc2)NC(=O)[C@@H]2CCCN2C(=O)[C@@H]2CCCN2C(=O)[C@H](CC(C)C)NC(=O)[C@H](CCC(=O)O)NC(=O)[C@H](Cc2ccccc2)NC(=O)[C@H](CC[S+](C)[O-])NC(=O)[C@@H]2CCCN2C(=O)[C@@H]2CCCN2C1=O` (single isomer, unassigned; Epimer-1), the IC50 in experiment [1] is more than 100000 nM; in experiment [2] it was 400 nM; in [3], 160 nM; in [8], 41 nM; in [9] it was 190 nM; in experiment [15], more than 100000 nM. Besides, the IC50 was found to be 140 nM in experiment [16] and 170 nM in [17]. Also, the MIC in experiment [4], in [5], in experiment [6], in experiment [7], in experiment [10] and in experiment [11] was more than 128 µM throughout. Besides, the minimum inhibitory concentration (MIC) in experiment [12], in [13], in [14] and in [18] was more than 128 µM throughout.

(Values after ChEMBL document CHEMBL4145614, “Cyclopeptides from the Sponge Stylissa flabelliformis” (J Nat Prod, 2018).)
